Paper PMC11079024, “Identification of a family of species-selective complex I inhibitors as potential anthelmintics” (Nature Communications, 2024)
Where “and” joins values, the source holds several entries; their conditions need not be identical. Equal values may be shown once. Read-outs that look alike come from different tables or passages of the source.

What was measured:
[1] = tested on: C. elegans complex IV (cytochrome C oxidase); experiment: In vitro complex IV activity assay, C. elegans mitochondria; format: biochemical, Caenorhabditis elegans; conditions: for % Activity Complex IV: 100 µM compound, relative to solvent control, mean (SEM); for CIV Activity: 100 μM inhibitor, in vitro activity relative to solvent control, N2 C. elegans mitochondria; for Percent in vitro activity, Complex IV (single replicate Rep1-Rep4) / Percent in vitro activity, Complex IV (Mean): 100 μM of NPD compound, C. elegans mitochondria; for Percent in vitro activity, Complex IV (single replicate Rep1-Rep4): individual biological replicates; for Percent in vitro activity, Complex IV (Mean): mean of four biological replicates
Summary of the method: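 Cytochrome C oxidase activity read spectrophotometrically at 550 nm (30 s intervals, 15 min) as oxidation of freshly DTT-reduced CytC. Mitochondria (0.2 mg/mL) came from adult worms of six C. elegans strains grown at 20 °C. Rates were taken from initial linear phase and normalised to solvent-control wells.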

[2] = tested on: C. elegans complex III (decylubiquinol-cytochrome C reductase); experiment: In vitro complex III activity assay, C. elegans mitochondria; format: biochemical, Caenorhabditis elegans; conditions: for % Activity Complex III: 100 µM compound, relative to solvent control, mean (SEM); for CIII Activity: 100 μM inhibitor, in vitro activity relative to solvent control, N2 C. elegans mitochondria; for Percent in vitro activity, Complex III (single replicate Rep1-Rep4) / Percent in vitro activity, Complex III (Mean): 100 μM of NPD compound, C. elegans mitochondria; for Percent in vitro activity, Complex III (single replicate Rep1-Rep4): individual biological replicates; for Percent in vitro activity, Complex III (Mean): mean of four biological replicates
Summary of the method: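 Mitochondria were isolated from adult C. elegans by bead-beating and differential centrifugation, then used at 0.2 mg/mL protein. Antimycin A-sensitive complex III activity was followed as decylubiquinol-driven cytochrome C reduction at 550 nm every 30 s for 15 min. Initial linear slopes were expressed as percent of solvent control.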

[3] = tested on: adult H. polygyrus; format: cell-based, Heligmosomoides polygyrus; conditions: aerobic; for Worm viability score of individual worm, scale from 0 (dead) to 3 (motile): single worms; for Percent Worms Affected: affected = score equal to or lower than 1.5; for effect on adult H. polygyrus viability: 10 µM, 24-h exposure
Method: After either 24- or 72 h chemical treatment, worm viability was manually scored by an examiner using a scale from 0 (dead) to 3 (motile); DMSO was used as a negative control in both 24- and 72 h treatments. The percentage of affected worms (i.e., worms with a score equal to or lower than 1.5) in each biological replicate is shown; data are from two biological replicates. Within each boxplot, black horizontal lines denote group medians, boxes span from the 25th to the 75th percentile of each group’s distribution, and whiskers extend to the maximum and minimum values.
The eleven benzimidazole derivatives were tested at a concentration of 10 µM under aerobic conditions against L3 and adult H. polygyrus.
For the larval assay, mice feces were collected 2 weeks post-infection and eggs were isolated. The eggs were left on agar at room temperature in the dark for eight to 10 days to allow them to develop into L3. Next, 30–40 L3 were incubated (37 °C, 5% CO2) in the culture medium (RPMI 1640 medium + 1% pen./strep. + 5% amphotericin B) containing the derivatives in 96-well plate (Corning, USA) reaching a final volume of 250 µL for 24 h. For the adult drug screening assay, female NMRI mice were euthanized with CO2 and adult H. polygyrus were dissected out of the intestines. Subsequently, three worms were exposed to the culture medium (RPMI 1640 medium + 1% pen./strep. + 5% amphotericin B) with the derivatives (2 mL) in a 24-well plate (Corning, USA) for either 24 or 72 h. DMSO ( < 1%) served as a negative control in both assays. All conditions were tested in duplicates. Finally, 80 µL of hot water ( ~ 80 °C) for L3 and 500 µL of hot water (~80 °C) for adults were added to the wells to check for their viability under a microscope (Carl Zeiss, Germany). Larvae were categorized as being either alive or dead, depending on whether they moved or not. […] The whole experiment was performed two times i.e., two independent biological replicates for both life stages (L3s and adults) and exposure times (24 and 72 h).

[4] = adult H. polygyrus, in vitro, 24 hours, per biological replicate
[5] = adult H. polygyrus, in vitro, 24 hours
[6] = adult H. polygyrus, in vitro, 72 hours, per biological replicate
[7] = adult H. polygyrus, in vitro, 72 hours
[8] = adult H. polygyrus, replicate 1, 24 hours after treatment
[9] = adult H. polygyrus, replicate 2, 24 hours after treatment
[10] = replicate 1, 24 hours after treatment, worms with score equal to or lower than 1.5
[11] = replicate 2, 24 hours after treatment, worms with score equal to or lower than 1.5

SMILES | % Activity Complex IV [1] | Percent in vitro activity, Complex IV (single replicate Rep1-Rep4) [1] | Percent in vitro activity, Complex IV (Mean) [1] | % Activity Complex III [2] | Percent in vitro activity, Complex III (single replicate Rep1-Rep4) [2] | Percent in vitro activity, Complex III (Mean) [2] | Percent Worms Affected (worms with a score equal to or lower than 1.5) [3, 4] | Worm viability score of individual worm, scale from 0 (dead) to 3 (motile) [3, 5] | Percent Worms Affected (worms with a score equal to or lower than 1.5) [3, 6] | Worm viability score of individual worm, scale from 0 (dead) to 3 (motile) [3, 7] | Percent Worms Affected [3, 8] | Percent Worms Affected [3, 9] | # of Worms Affected [3, 10] | # of Worms Affected [3, 11] | effect on adult H. polygyrus viability [3] | other results
O=C(NCCc1ccc(Cl)cc1)c1ccccc1C(F)(F)F [Wact-11] | 89.00 (0.63) % | 91.037% and 86.647% and 91.305% and 87.004% | 88.998% | 90.97 (1.75) % | 83.802% and 95.824% and 97.988% and 86.268% | 90.970% | – | – | – | – | – | – | – | – | – | CIV Activity ([1]; Mean): 88.998%; CIV Activity ([1]; single replicate): 91.037% and 86.647% and 91.305% and 87.004%; CIII Activity ([2]; Mean): 90.970%; CIII Activity ([2]; single replicate): 83.802% and 95.824% and 97.988% and 86.268%
Brc1ccc(Cn2cnc3ccccc32)cc1 [Compound 5542661] | – | – | – | – | – | – | 17% and 0% | 2.5 and 2 | 17% and 83% | 1.5 | – | – | – | – | – | –
Cc1nc2ccccc2n1Cc1ccc(Cl)cc1 [STK697993] | – | – | – | – | – | – | 17% | 2.5 and 1.5 | 17% and 100% | – | 17% | 17% | 1 | 1 | – | # of Worms Affected [3, 4]: 1
Clc1ccc(SCCCCn2cnc3ccccc32)cc1 [Compound 7925515] | – | – | – | – | – | – | 50% and 100% | 1.5 | 100% | – | 100% | 50% | 6 | 4 | potent effects | –
COc1cc2c(cc1OC)C(/C=C/c1ccc(N(C)C)cc1)=NCC2 [NPD6303] | 83.07 (1.76) % | 86.689% and 90.588% and 80.321% and 74.685% | 83.071% | 78.10 (1.39) % | 81.950% and 83.314% and 71.366% and 75.773% | 78.101% | – | – | – | – | – | – | – | – | – | –
Clc1ccccc1OCCCCn1cnc2ccccc21 [Compound 7925804] | – | – | – | – | – | – | 60% and 67% | 1.5 and 2 | 100% and 83% | 1.5 | – | – | 2 | 4 | potent effects | # of Worms Affected [3, 6]: 5
Clc1ccc(Cn2cnc3ccccc32)c(Cl)c1 [Compound 6750659] | – | – | – | – | – | – | 33% and 17% | 1.5 and 2.5 | 33% and 100% | 1.5 | 33% | 17% | 2 | 1 | – | –
COc1cc2c(cc1OC)C(C(C)c1ccc(CC(C)C)cc1)=NCC2 (stereo not drawn) [NPD10504] | 74.57 (1.35) % | 71.688% and 71.402% and 72.596% and 82.587% | 74.568% | 79.51 (1.51) % | 86.667% and 75.479% and 82.250% and 73.635% | 79.508% | – | – | – | – | – | – | – | – | – | –
Cc1nc2ccccc2n1Cc1ccccc1Cl [Compound 6707368] | – | – | – | – | – | – | 0% and 14% | 2.5 | 29% and 100% | 1.5 | 0% | 14% | 0 | 1 | – | –
CC(C)Cc1ccc(C(C)c2nc3ccccc3n2C)cc1 (stereo not drawn) [NPD8790] | 79.84 (1.34) % | 83.143% and 80.952% and 83.287% and 71.964% | 79.837% | 63.54 (0.90) % | 58.669% and 65.835% and 63.074% and 66.590% | 63.542% | – | – | – | – | – | – | – | – | potent effects | –
CCn1c(C(C)c2ccc(CC(C)C)cc2)nc2ccccc21 (stereo not drawn) [STK951902] | – | – | – | – | – | – | 67% and 83% | 2 and 1 and 1.5 | 100% and 67% | – | 67% | 83% | 4 | 5 | potent effects | –
Cc1nc2ccccc2n1Cc1ccc(Br)cc1 [Compound 5567167] | – | – | – | – | – | – | 33% and 17% | 2.5 and 2 and 1.5 | 83% and 100% | 1.5 | 33% | 17% | 2 | 1 | – | –
Cc1ccccc1OCCCCn1cnc2ccccc21 [Compound 7732524] | – | – | – | – | – | – | 67% | 1.25 (4×) and 1 | 83% and 100% | 0.5 | 100% | 67% | 6 | 4 | potent effects | # of Worms Affected [3, 4]: 4 and 6
COc1cc2c(cc1OC)C(c1ccc(-c3ccc(Cl)c(Cl)c3)o1)=NCC2 [NPD3577] | 81.06 (2.34) % | 78.287% and 81.122% and 71.227% and 93.621% | 81.064% | 65.54 (2.59) % | 80.555% and 63.410% and 61.250% and 56.942% | 65.539% | – | – | – | – | – | – | – | – | – | –
CC(C)Cc1ccc(C(C)c2nc3ccccc3n2C(C)C)cc1 (stereo not drawn) [STK951903] | – | – | – | – | – | – | 67% and 14% | 1.5 and 2.5 and 2 | 100% | – | 67% | 14% | 4 | 1 | – | # of Worms Affected [3, 6]: 6
C=C(C)[C@H]1Cc2c(ccc3c2O[C@@H]2COc4cc(OC)c(OC)cc4[C@@H]2C3=O)O1 [Rotenone, reference compound] | 99.57 (1.12) % | 102.333% and 104.163% and 97.333% and 94.435% | 99.566% | 99.20 (1.32) % | 102.759% and 97.964% and 103.800% and 92.288% | 99.203% | – | – | – | – | – | – | – | – | – | CIV Activity ([1]; Mean): 99.566%; CIV Activity ([1]; single replicate): 94.435% and 102.333% and 104.163% and 97.333%; CIII Activity ([2]; Mean): 99.203%; CIII Activity ([2]; single replicate): 92.288% and 102.759% and 97.964% and 103.800%
